Experimental data published in patent publication US7851623B2, “Chemical process” (AstraZeneca AB, priority 2006, dated 2010).

Legend:
HUVEC [1] = assay: HUVEC assay, basal endothelial cell proliferation; format: cell-based; conditions: Homo sapiens, basal (unstimulated) proliferation, read-out: IC50 for inhibition of basal endothelial cell proliferation
Calu-6 tumour xenograft = assay: in vivo solid tumour model (WO 00/47212), Calu-6 tumour xenograft growth; conditions: once-daily oral, 28 days
HUVEC [2] = assay: HUVEC assay, VEGF-stimulated endothelial cell proliferation; format: cell-based; conditions: Homo sapiens, read-out: IC50 for inhibition of VEGF-stimulated endothelial cell proliferation
tumour models = conditions: once-daily oral administration; cited from earlier work

COc1cc2c(Oc3ccc4[nH]c(C)cc4c3F)ncnc2cc1OCCCN1CCCC1 [AZD2171, 4-[(4-fluoro-2-methyl-1H-indol-5-yl)oxy]-6-methoxy-7-[3-(pyrrolidin-1-yl)propoxy]quinazoline]
IC50 (HUVEC [1]): > 500 nM | inhibition of growth of Calu-6 tumour xenograft (Calu-6 tumour xenograft; 1.5 mg/kg/day, P<0.01 one-tailed t test): 49% | inhibition of growth of Calu-6 tumour xenograft (Calu-6 tumour xenograft; 3 mg/kg/day, P<0.0001 one-tailed t test): 69% | inhibition of growth of Calu-6 tumour xenograft (Calu-6 tumour xenograft; 6 mg/kg/day, P<0.0001 one-tailed t test): 91% | IC50 (HUVEC [2]): 0.4 ± 0.2 nM | anti-tumour activity in a range of models (tumour models): broad-spectrum anti-tumour activity
